In this experiment the target is ClpP1P2 (Mycobacterium tuberculosis (strain ATCC 25618 / H37Rv), UniProt P9WPC3+P9WPC5). Put plainly: in vitro assay to detect presence of AMC directly proportional to the activity of ClpP1P2. GHDDI collaboration. It counts as functional.

Bounds are passed on as bounds.

For orientation: IC50 means the concentration that inhibits the measured activity by half. As for `CCN(C(=O)CNc1cc(C)c(F)cc1C(N)=O)C1CC1`, the IC50 is above 100 µM.

Turning to `CC(Cn1cccn1)Nc1cnc2ccccc2n1` (stereo unspecified), the IC50 was above 100 µM.

Regarding `COc1ccccc1CNc1ncnc2c1NC(=O)CN2`, the IC50 was above 100 µM.

`c1cnc2nc(N3CCCC3c3nnc4n3CCCCC4)ccc2n1` (stereo unspecified): the IC50 is above 100 µM.

Consider `CC(Cc1ccco1)NC(=O)Nc1ccc(N2CCCC2)nc1` (stereo unspecified), for which the IC50 is above 100 µM.

With `Cn1cc(CN2CCCCC2c2ccc(-c3cccc(F)c3)nc2)cn1` (stereo unspecified), the IC50 is above 100 µM.

As for `Cc1cc(CN2CCN(C(=O)c3sccc3C3CC3)CC2)no1`, the IC50 was above 100 µM.

With `COCCNc1ncc(-c2cccc(OC)c2)c(-c2nccn2C)n1`, the IC50 is above 100 µM.

As to `CC(C)c1nnc(CNC2CCCN(Cc3noc(C4CC4)n3)C2)o1` (stereo unspecified), the IC50 was above 100 µM.

Take `CC(Cc1ccco1)NC(=O)Nc1ccc(N(C)C)nc1` (stereo unspecified): the IC50 is above 100 µM.

With `CC(c1ccco1)N(C)Cc1cc2cc3c(cc2[nH]c1=O)OCO3` (stereo unspecified), the IC50 is above 100 µM.

Turning to `Cc1cc(C)n(-c2cncc(NCCNC(=O)C(C)C)n2)n1`, the IC50 was above 100 µM.

With `Cc1nc(N2CCCC2C(=O)NCc2ccsc2)nc2ccccc12` (stereo unspecified), the IC50 was above 100 µM.

In the case of `COc1ncc(NCc2ccsc2)cc1C(N)=O`, the IC50 is above 100 µM.

`Cc1n[nH]c(=O)c2c(NC(=O)CN3CCOC(C)C3)oc(C)c12` (stereo unspecified): the IC50 is above 100 µM.

`N#Cc1cccnc1N1CCCN(C(=O)CCn2cncn2)CC1`: the IC50 is above 100 µM.

`Cc1nn(C)c(C)c1-c1cc(-c2cc(CC(=O)O)cs2)nc(N)c1C#N`: the IC50 is above 100 µM.

Turning to `COC(=O)COc1cccc(NS(=O)(=O)c2cc(C(=O)O)cs2)c1`, the IC50 was above 100 µM.

For the compound `CCOC(=O)C1(Cc2ccc(Cl)cc2)CCN(Cc2ncc[nH]2)CC1`, the IC50 was above 100 µM.

For `CC(C)c1nn(C)c(Cl)c1CNCC(=O)N1CCN(C)CC1`, the half-inhibitory concentration (IC50) was above 100 µM.

With `Cc1cc(C)n(CCCNc2ncnc3c2NC(=O)CN3)n1`, the IC50 was above 100 µM.

In the case of `Cc1ccc(CNC(=O)NC(C)Cn2cccn2)cn1` (stereo unspecified), the IC50 is above 100 µM.

Consider `CNc1cncc(C2CCCN2C(=O)Cn2ccnc2C)n1` (stereo unspecified), for which the IC50 was above 100 µM.

Turning to `CCN(CC)C(=O)c1ccc(CNc2cncc(-n3cccn3)n2)cc1`, the half-inhibitory concentration (IC50) was above 100 µM.

For the compound `Cc1ccc2cc(CN(C)Cc3ccncn3)c(=O)[nH]c2c1`, the IC50 was above 100 µM.

Take `Cn1ccc2c(-c3cc(N)nc(N4CCOCC4)n3)ccnc21`: the IC50 was above 100 µM.

In the case of `c1coc(-c2noc(CN3CCc4cncnc4C3)n2)c1`, the IC50 is above 100 µM.

On to `Cc1nn2c(N3CCCC(C(N)=O)C3)cc(-c3ccccc3)nc2c1C` (stereo unspecified), for which the IC50 is above 100 µM.

`CC(=O)N1CCC(c2cc(C(F)(F)F)n3ccnc3n2)CC1`: the IC50 was above 100 µM.

`COc1ccc(-c2cc3cccn(CC(=O)N4CCOCC4)c-3n2)cc1`: the IC50 was above 100 µM.

`CCOc1ccc2[nH]c(=O)c(CN3CCN(S(N)(=O)=O)CC3)cc2c1`: the concentration for half-maximal inhibition (IC50) is above 100 µM.

As to `Cc1n[nH]c(C)c1-c1cc(-c2cc[nH]c2)nc(N)c1C#N`, the IC50 was above 100 µM.

In the case of `Cc1n[nH]c(=O)c2c(NC(=O)CN3CCCC(C(F)(F)F)C3)oc(C)c12` (stereo unspecified), the IC50 was above 100 µM.

In the case of `Cc1sc2c(C3CCCNC3)nc(Nc3cccc(F)c3)n2c1C` (stereo unspecified), the IC50 is above 100 µM.

On to `Cc1cc(C)n(CC2CCCN2CCCS(N)(=O)=O)n1` (stereo unspecified), for which the IC50 is above 100 µM.

Take `c1cc2nc(C3CCNCC3)nn2cc1NC1CCC1`: the concentration for half-maximal inhibition (IC50) was above 100 µM.

Regarding `Cc1nc(-c2nc(C(=O)N3CCOCC3)c3ccccn23)cn1C(C)C`, the IC50 is above 100 µM.

Take `CC(C)c1ncc(-c2cc(C3CCC3)nc(N)c2C#N)cn1`: the IC50 was above 100 µM.

`O=C(c1c2c(N3CCCC3)ncnc2n2ccccc12)N1CCCC1`: the IC50 was above 100 µM.

For `O=C(c1cc(-c2ccco2)nc2c(Cl)cccc12)N1CCS(=O)(=O)CC1`, the IC50 is above 100 µM.

Regarding `CCOC(=O)CN1CCC2(CC1)CC(=O)c1ccc3ccccc3c1O2`, the IC50 is above 100 µM.

As to `CC(C)N1CC[C@@](C)(O)[C@H](n2ccc(=O)[nH]c2=O)C1`, the IC50 was above 100 µM.

`CCn1cc(-c2cc(-c3cc(CC(=O)O)cs3)nc(N)c2C#N)c(C)n1`: the IC50 is above 100 µM.

In the case of `Cc1oc(C)c(C(=O)N2CCN(Cc3cscn3)CC2)c1C`, the IC50 was above 100 µM.

For the compound `N#Cc1c(C2CC2)cc(-c2ccc(O)cc2)nc1N`, the IC50 was above 100 µM.

Turning to `CCn1nc(NC(=O)Cn2ccc(C(C)=O)n2)c2ccccc21`, the IC50 was above 100 µM.

`O=C(NCc1ccccn1)[C@H]1COC[C@H]2CN(C3CCCC3)C[C@H]21`: the IC50 was above 100 µM.

In the case of `O=C(c1c2c(N3CCCC3)ncnc2n2ccccc12)N1CCOCC1`, the IC50 is above 100 µM.

As for `CNc1cc(C(=O)NCCC2=CSC3=NCCCN23)ccn1`, the IC50 was above 100 µM.

As to `CCC[C@H]1CN(c2cncc(C(=O)N(C)C)n2)C[C@@H]1N(C)C`, the IC50 is above 100 µM.

Turning to `CN(C)C(=O)c1nc(-c2ccc(S(C)(=O)=O)cc2)c2ccccn12`, the IC50 was above 100 µM.

On to `COc1ccc(-c2nnc(CNCCn3cc(C)cn3)o2)cc1`, for which the IC50 is above 100 µM.

Turning to `O=C1C[C@H]2CC[C@@H](CN1)N2c1cc(-c2ccccc2F)nc2ccnn12`, the concentration for half-maximal inhibition (IC50) is above 100 µM.

With `CN1CCC(NC(=O)c2cc(Br)cc(Cl)c2O)C1=O` (stereo unspecified), the IC50 was above 100 µM.

Turning to `OCCNc1nc(Nc2ccccc2)c2nccnc2n1`, the 50% inhibitory concentration (IC50) was above 100 µM.

For `Cn1ncc(N2CCOC(CCNC(=O)CO)C2)cc1=O` (stereo unspecified), the 50% inhibitory concentration (IC50) was above 100 µM.

Turning to `Cc1ccc2nc(CNc3ccccc3C(=O)NC3CC3)cn2c1`, the IC50 was above 100 µM.

Regarding `COc1ccc2c(c1)C(=O)N(C)C1(CCN(C(=O)OC(C)(C)C)CC1)N2`, the IC50 was above 100 µM.

Consider `CCN(CC)C(=O)CCNc1cncc(-n2nc(C)cc2C)n1`, for which the IC50 was above 100 µM.

For the compound `CCNc1cc2c(nn1)CCN(C(=O)c1ccoc1)C2`, the IC50 is above 100 µM.

In the case of `Cn1cnc(-c2nc(C(=O)NCC3CCCO3)c3ccccn23)c1` (stereo unspecified), the IC50 was above 100 µM.

Turning to `CCCC(C)NC(=O)c1ccc(-c2ccco2)[nH]c1=O` (stereo unspecified), the IC50 was above 100 µM.

In the case of `COCCNCc1cc2c(C)cc(C)cc2n2c(=O)n(C)nc12`, the IC50 was above 100 µM.

On to `CCN(Cc1nc2c(cnn2C)c(=O)[nH]1)Cc1cccs1`, for which the IC50 was above 100 µM.

For the compound `N#Cc1ccnc(NCc2cc3n(n2)CCCN(C(=O)C2CCC2)C3)c1`, the IC50 is above 100 µM.

`CC(Cn1ccnc1)NC(=O)NCCc1cccs1` (stereo unspecified): the IC50 is above 100 µM.

In the case of `Cc1cccc2c1C(=O)NC1(CCOCC1)N2`, the IC50 is above 100 µM.

Take `Cn1ccc2c(-c3cc(N4CCOCC4)ncn3)ccnc21`: the IC50 is above 100 µM.

Take `CCN(CC)c1nc(C)cc(C(=O)Nc2cccc(C(N)=O)c2)n1`: the IC50 is above 100 µM.

On to `Cc1nc(-c2ccsc2)ccc1C(=O)NCC(C)N1CCOCC1` (stereo unspecified), for which the IC50 was above 100 µM.

As for `CS(=O)(=O)CCNC(=O)c1ccc(-c2ccco2)[nH]c1=O`, the IC50 was above 100 µM.

As for `N#Cc1cccc(N2CCCC3(CCC(=O)N(C4CCCC4)C3)C2)n1` (stereo unspecified), the IC50 was above 100 µM.

For `N#Cc1cccnc1N1CCC(OCc2ccccc2)CC1`, the IC50 is above 100 µM.

Consider `Cn1cnc(-c2nc(C(=O)NCCN3CCCC3)c3ccccn23)c1`, for which the IC50 is above 100 µM.

As for `Cc1nc(N2CCCC2)ccc1NCc1ccccn1`, the IC50 was above 100 µM.

Take `CC(C)C1CN(c2cccc(C#N)n2)CCCN1CC1CC1` (stereo unspecified): the IC50 is above 100 µM.

For `CNc1cncc(C2CCN(C(=O)c3coc(C)n3)CC2)n1`, the 50% inhibitory concentration (IC50) is above 100 µM.

As to `CNC(=O)CNC(=O)c1ccc(-c2scnc2C)nc1`, the IC50 was above 100 µM.

As to `CN(C)S(=O)(=O)N1CC[C@]2(O)CCN(c3cc(C#N)ccn3)C[C@@H]2C1`, the IC50 is above 100 µM.

As for `O=C(c1ccc2ccccc2n1)N1CCC2(CCN2c2ncccn2)C1` (stereo unspecified), the IC50 was above 100 µM.

For `CC(C)c1nc(CN(C)C2CCN(CCc3ccncc3)C2)no1` (stereo unspecified), the IC50 is above 100 µM.

As to `Cc1nc(CN2CCC(O)(c3ccccc3F)CC2)c2ccccn12`, the IC50 is above 100 µM.

`CCCOc1ccc(CNc2cncc(-n3cccn3)n2)cc1`: the IC50 is above 100 µM.

For `CCc1nnc2n1CCN(C(=O)c1ccc(-c3ccco3)[nH]c1=O)C2`, the IC50 is above 100 µM.

With `c1cc(CN2CCC(c3ccnc4nccn34)C2)ccn1` (stereo unspecified), the IC50 is above 100 µM.

As to `Cn1cc(-c2ncc3c(c2C(=O)O)CCN(Cc2ccccn2)C3)cn1`, the IC50 is above 100 µM.

For the compound `Cc1nc(N2C[C@H]3CC[C@@H](C2)N3)nc2cc(S(C)(=O)=O)ccc12`, the half-inhibitory concentration (IC50) was above 100 µM.

In the case of `Nc1nccc(-c2cccc3ccnn23)n1`, the half-maximal inhibitory concentration (IC50) was above 100 µM.

For `CCOCc1ccc(CNc2cncc(-n3cccn3)n2)cc1`, the IC50 is above 100 µM.

In the case of `COc1ccc(C2Nc3ccccc3C3=NCCCN32)cc1OC` (stereo unspecified), the IC50 was above 100 µM.

As to `CN(Cc1ccsc1)C(=O)Nc1ccc(N2CCCC2)nc1`, the half-maximal inhibitory concentration (IC50) was above 100 µM.

Regarding `CN(C)C(=O)N1CCN(C(=O)c2ccn3cncc3c2)CC1`, the IC50 was above 100 µM.

Turning to `CN(C)C1CCN(c2cc(-c3ccccc3)nc3ccnn23)C1` (stereo unspecified), the IC50 is above 100 µM.

`CC(O)c1cn(CC2CCN(C(=O)c3cscn3)CC2)nn1` (stereo unspecified): the IC50 was 84.4 µM.

For the compound `COCCN1CCc2cc(C(=O)NC(C)C)c(NCC(C)C)nc2CC1`, the IC50 was above 100 µM.

As for `CS(=O)(=O)NC1CCN(C(=O)NCc2ccccn2)CC1`, the IC50 is above 100 µM.

Consider `Cn1ccc2c(-c3nccc(N)n3)ccnc21`, for which the IC50 is above 100 µM.

With `CCc1ncc2c(n1)CN(C(C)C(=O)Nc1ccc(Cl)cn1)CC2` (stereo unspecified), the concentration for half-maximal inhibition (IC50) is above 100 µM.

As for `CN(Cc1nnc(-c2ccco2)o1)C1CCCN(c2cccnn2)C1` (stereo unspecified), the IC50 is above 100 µM.

For `Cn1cc(Cl)cc1C(=O)N1CCCN(Cc2ccccc2)CC1`, the IC50 is above 100 µM.

Turning to `O=C(NCC1CC1)c1c2c(N3CCCC3)ncnc2n2ccccc12`, the IC50 is above 100 µM.

With `CC(C)n1c2ccccc2c2c1cc(C(=O)N(C)C)n2C(=O)N(C)C`, the half-inhibitory concentration (IC50) is above 100 µM.

With `O=C(c1c2c(NCC3CC3)ncnc2n2ccccc12)N1CCCC1`, the IC50 was above 100 µM.

With `c1ccc(CCCN2CCOC(Cn3cccn3)C2)cc1` (stereo unspecified), the IC50 is above 100 µM.

Regarding `CC(C)c1nn(C)c(N(C)C)c1CNCC(O)c1cccc(F)c1` (stereo unspecified), the IC50 was above 100 µM.

On to `O=C(NCCC(=O)N1CCCc2ccccc21)c1ccc(F)cc1F`, for which the IC50 was above 100 µM.

Values taken from ChEMBL document CHEMBL3988442, “University of Dundee, Small-Polar-MMV Screening Library” (2021).
